The record followed here is patent US20250332096A1, “BEVERAGE FORMULATION AND METHOD OF PROMOTING CELLULAR HYDRATION BY ENHANCING INTRACELLULAR PERMEATION” (Eastpond Laboratories Limited, priority 2024, published 2025).

The subject of data set [1] is C. elegans. Put plainly: C. elegans lifespan Test A (observations carried out earlier). The format is in vivo. The conditions noted are these: day 15, 0.1%, 50 worms per group. The protocol: (§1) C. elegans study performed for the present disclosure is a follow-up and repetition of the observations carried out earlier (referred as Test A here). The results of the current C. elegans study (Test B) were recorded with higher number of animals compared to the Test A (50 worms per treated groups versus 130 worms per groups). Nematodes were maintained and propagated on Nematode Growth Medium—(NGM) containing plates and fed with Escherichia coli OP50 bacteria. The C. elegans strain used in this study is Bristol (N2) as wild-type.

Data set [2] concerns Wheat seeds (Triticum aestivum). Put plainly: Wheat seed germination. The class given is in vivo. The note with it: 0.5% w/w in USA I water. The method, then: Wheat seeds (Triticum aestivum) were germinated using USA I, USA II, and BP I waters described for Example 2. Germination rate using un-supplemented (control) water was compared to that with the same water variously supplemented with a cyclodextrin component, and/or a bioactive agent, as an active component of cellular hydration. For each condition, ten seeds were placed in continuous water contact in a Petri-type dish kept at 25 C in 12 hr light/dark cycles. Photometric images were recorded on days 1 to 6 after seeding. The percentage of seeds germinated was calculated and compared as a function of time and of the applied additive concentrations.
Water samples for seed germination were used alone with no additive, or containing cyclodextrins, or containing clathrate inclusion complexes of cyclodextrin with L-arginine or with nicotinamide (both obtained from Sigma Chemical Co.; St. Louis, MO), or with L-carnitine (from Lonza AG; Switzerland). […] Additive solutions were prepared fresh on the day of germination start.
Parent cyclodextrins α-cyclodextrin (ACD), β-cyclodextrin (BCD), and γ-cyclodextrin (GCD), were obtained from Wacker Chemie (Munich, Germany). The following derivatized cyclodextrins were obtained from Cyclolab Ltd. (Budapest, Hungary): hydroxypropylated-beta-cyclodextrin (DS-3)(HPBCD), carboxymethylated-β-cyclodextrin (DS-3.5)(CMBCD), 2-hydroxy-3-N,N,N-trimethylamino)propyl-β-cyclodextrin chloride (DS-3.6)(QABCD).
Germination kinetics in control and additive-modified water under identical conditions were quantified as the percentage of the seeds having a sprout. Each determination consisted of 100 seeds for each parameter. Results are reported in Table 5, below, and in FIGS. 11-13. • A) Cyclodextrin/L-Arg Inclusion Complex Increases Seed Germination.

The subject of data set [3] is C. elegans. Put plainly: C. elegans lifespan Test B (Example 6). The format is in vivo. The method, then:
as §1, with “wild-type. FIG. 21, illustrates the lifespan of control and alpha-cyclodextrin-treated worms. The control C. elegans lived on a medium made with tap water. The treated worms were maintained on culture media made with 0.1% alpha-cyclodextrin, 0.1% alpha-CD/nicotinic acid and 0.1% alpha-CD/arginine complex containing tap water.” for “wild-type.”

Data set [4] is described as follows: Visual inspection (clarity) of test solutions. The conditions noted are these: purified water. The class given is physicochemical. The method, then:
(§2) 1:1 mol/mol stoichiometry complexes were prepared for the experiment. Nicotinic acid/alpha-CD complex was prepared by dissolving 11.22 g nicotinic acid and 98.63 g alpha-CD (89.66 g on dry basis) in 700 ml purified water. Nicotinamide/alpha-CD complex was prepared by dissolving 5.57 g nicotinamide and 49.3 g alpha-CD (44.4 g on dry basis) in 350 ml purified water and L-arginine/alpha-CD complex was prepared by dissolving 15.18 g L-arginine and 94.26 g alpha-CD (85.69 g on dry basis) in 700 ml purified water. Further, for all the three complexes, the liquid was frozen in dry ice bath and lyophilized. The dry lyophilizate was ground and sieved.
(§3) Clarity, pH, conductivity, density, viscosity, turbidity, surface tension and osmolality were determined in solutions prepared with purified water. […]

A short description of data set [5]: Osmolality of test solutions. The format is physicochemical. The note with it: purified water. The method, then:
as §2, §3

A short description of data set [6]: Viscosity of test solutions. The class given is physicochemical. The note with it: purified water. The protocol: as §2
Clarity, pH, conductivity, density, viscosity, turbidity, surface tension and osmolality were determined in solutions prepared with purified water.

Data set [7] in a line: Surface tension of test solutions. The note with it: purified water. The class given is physicochemical. The protocol: as §2, §3

As to `OC[C@H]1O[C@@H]2O[C@H]3[C@H](O)[C@@H](O)[C@@H](O[C@H]4[C@H](O)[C@@H](O)[C@@H](O[C@H]5[C@H](O)[C@@H](O)[C@@H](O[C@H]6[C@H](O)[C@@H](O)[C@@H](O[C@H]7[C@H](O)[C@@H](O)[C@@H](O[C@H]1[C@H](O)[C@H]2O)O[C@@H]7CO)O[C@@H]6CO)O[C@@H]5CO)O[C@@H]4CO)O[C@@H]3CO` [Alpha Cyclodextrin, α-cyclodextrin], the “Fraction of worms alive” value with C. elegans [1] is 25%; with C. elegans [3] (Test B, day 15, 0.1%, 130 worms per group, tap water media), 20%. Besides, the “wheat seed germination, percentage of the seeds having a sprout” value in data set [2] (day 0) came out at 0%; in data set [2] (day 1), 11%; in data set [2] (day 2) it was 18%; in data set [2] (day 3), 68%; in data set [2] (day 4), 92%. In addition, in the data set on C. elegans [3] (all three studied concentrations (0.05, 0.1, 0.5%)), the effect on lifespan entry is recorded as “significant”. The compound also yielded an average lifespan with C. elegans [3] (control animals 12.33 days) of 13.25 days. In addition, the “Visual Inspection” value in data set [4] (0.05%), in data set [4] (0.10%), in data set [4] (1.00%) and in data set [4] (2.00%) was “clear” each time. Further, the Osmolality is recorded as 0 mOsm/kg in data set [5] (0.05%), 2 mOsm/kg in data set [5] (0.10%) and 18 mOsm/kg in data set [5] (2.00%). In addition, the “Viscosity (25 C.)” value is given as 0.91 cP in data set [6] (0.05%), 0.92 cP in data set [6] (0.10%), 0.97 cP in data set [6] (1.00%) and 1.06 cP in data set [6] (2.00%). The “Surface Tension” value is 72 mN · m^−1 in data set [7] (0.05%), 72 mN · m^−1 in data set [7] (0.10%), 72 mN · m^−1 in data set [7] (1.00%) and 73 mN · m^−1 in data set [7] (2.00%).
